Laboratory results from US20160108049A1 (TAKEDA Gmbh, priority 2011, published 2016).

Key:
human PDE5 = molecular target: T1, human PDE5 (Homo sapiens, UniProt O76074); experiment: Inhibition of PDE5 activity (platelet lysate, SPA assay); format: biochemical; conditions: 0.5 μM cGMP, read-out: PDE5 Inhibitory values measured as -logIC50 (converted)
T1 construct: from tissue; host or cells: human platelets from fresh donor blood (platelet lysate)
Procedure, shortened: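 Human platelet lysate (10,000 g supernatant) served as PDE5 source, with 1 μM motapizone and 10 nM PDE2 inhibitor added, in Tris pH 7.4, 5 mM Mg2+, BSA. Substrate 0.5 μM [3H]cGMP, 10–20% conversion; 5 min preincubation then 15 min at 37 °C, stopped by SPA beads with IBMX. IC50 by non-linear regression.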

PDE4B1 = molecular target: T2, PDE4B1 (Homo sapiens, UniProt Q07343); experiment: Inhibition of PDE4 activity (PDE4B1, SPA assay); format: biochemical; conditions: recombinant PDE4B1, 0.5 μM cAMP; read-out: PDE4B1 Inhibitory values measured as -logIC50 (converted)
T2 construct: made in house; host or cells: SF21 insect cells (baculovirus; virus made in SF9 cells, pCR-Bac vector)
T2 sequence (Q07343 whole entry): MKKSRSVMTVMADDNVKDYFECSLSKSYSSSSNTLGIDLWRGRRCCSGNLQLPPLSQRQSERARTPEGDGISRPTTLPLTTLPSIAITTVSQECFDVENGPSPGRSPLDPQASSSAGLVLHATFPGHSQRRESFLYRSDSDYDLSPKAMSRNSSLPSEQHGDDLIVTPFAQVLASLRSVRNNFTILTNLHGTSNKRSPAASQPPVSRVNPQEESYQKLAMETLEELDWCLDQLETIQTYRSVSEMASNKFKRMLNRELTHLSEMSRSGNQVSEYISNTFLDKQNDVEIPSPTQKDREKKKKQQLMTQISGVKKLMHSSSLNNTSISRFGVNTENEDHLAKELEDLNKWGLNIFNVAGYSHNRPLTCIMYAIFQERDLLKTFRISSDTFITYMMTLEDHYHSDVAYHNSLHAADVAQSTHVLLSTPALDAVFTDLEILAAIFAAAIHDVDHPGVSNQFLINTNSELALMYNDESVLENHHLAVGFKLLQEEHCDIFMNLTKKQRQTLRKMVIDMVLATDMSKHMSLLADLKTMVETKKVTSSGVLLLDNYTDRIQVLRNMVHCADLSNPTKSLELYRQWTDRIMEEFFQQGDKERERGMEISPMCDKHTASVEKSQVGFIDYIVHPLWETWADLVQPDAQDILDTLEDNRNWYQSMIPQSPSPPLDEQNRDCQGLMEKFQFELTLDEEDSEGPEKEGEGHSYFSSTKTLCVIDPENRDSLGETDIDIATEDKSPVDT
Procedure, shortened: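 Baculovirus-expressed enzyme from SF21 cell 1000×g supernatant; substrate 0.5 μM [3H]cAMP in 20 mM Tris pH 7.4, 5 mM Mg2+, 0.1 mg/ml BSA, 10-20% conversion. 5 min preincubation at 37 °C, 15 min reaction, stopped by SPA beads with IBMX; IC50 by non-linear regression.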

Compound	IC50 (human PDE5) [nM]	IC50 (PDE4B1) [nM]
COc1ccc(C2=NN(C3CCN(C(=O)[C@@H](Cc4ccc(C(C)(C)C)cc4)NC(=O)c4c(C)[nH]c5c(-c6c(OCC7CC7)ccc7c6OCO7)ncnc45)CC3)C(=O)[C@@H]3CCCC[C@H]23)cc1OC [Example 46, N-[(2R)-3-(4-tert-butylphenyl)-1-{4-[(4aS,8aR)-4-(3,4-dimethoxyphenyl)-1-oxo-4a,5,6,7,8,8a-hexahydrophthalazin-2(1H)-yl]piperidin-1-yl}-1-oxopropan-2-yl]-4-[5-(cyclopropylmethoxy)-1,3-benzodioxol-4-yl]-6-methyl-5H-pyrrolo[3,2-d]pyrimidine-7-carboxamide]	1 to 10	1 to 10
COc1ccc(C2=NN(C3CCN(C(=O)[C@@H](Cc4ccccc4)NC(=O)c4c(C)[nH]c5c(-c6c(OCC7CC7)ccc7c6OCO7)ncnc45)CC3)C(=O)[C@@H]3CCCC[C@H]23)cc1OC [Example 26, 4-[5-(cyclopropylmethoxy)-1,3-benzodioxol-4-yl]-N-[(2R)-1-{4-[(4aS,8aR)-4-(3,4-dimethoxyphenyl)-1-oxo-4a,5,6,7,8,8a-hexahydrophthalazin-2(1H)-yl]piperidin-1-yl}-1-oxo-3-phenylpropan-2-yl]-6-methyl-5H-pyrrolo[3,2-d]pyrimidine-7-carboxamide]	< 1	1 to 10
COc1ccc(C2=NN(C3CCN(C(=O)[C@@H](Cc4ccc(C#N)cc4)NC(=O)c4c[nH]c5c(-c6c(OCC7CC7)ccc7c6OCO7)ncnc45)CC3)C(=O)[C@@H]3CCCC[C@H]23)cc1OC [Example 16, N-[(2R)-3-(4-cyanophenyl)-1-{4-[(4aS,8aR)-4-(3,4-dimethoxyphenyl)-1-oxo-4a,5,6,7,8,8a-hexahydrophthalazin-2(1H)-yl]piperidin-1-yl}-1-oxopropan-2-yl]-4-[5-(cyclopropylmethoxy)-1,3-benzodioxol-4-yl]-5H-pyrrolo[3,2-d]pyrimidine-7-carboxamide]	1 to 10	1 to 10
COc1ccc(C2=NN(C3CCN(C(=O)[C@@H](Cc4ccccc4)NC(=O)c4c[nH]c5c(-c6c(OCC7CC7)ccc7c6OCO7)ncnc45)CC3)C(=O)C(C)(C)C2)c2c1OC(C)(C)C2 [Example 115]	1 to 10	< 1
COc1ccc(C2=NN(C3CCN(C(=O)[C@@H](Cc4ccc(C#N)cc4)NC(=O)c4c(C)[nH]c5c(-c6c(OCC7CC7)ccc7c6OCO7)ncnc45)CC3)C(=O)[C@@H]3CCCC[C@H]23)cc1OC [Example 14, N-[(2R)-3-(4-cyanophenyl)-1-{4-[(4aS,8aR)-4-(3,4-dimethoxyphenyl)-1-oxo-4a,5,6,7,8,8a-hexahydrophthalazin-2(1H)-yl]piperidin-1-yl}-1-oxopropan-2-yl]-4-[5-(cyclopropylmethoxy)-1,3-benzodioxol-4-yl]-6-methyl-5H-pyrrolo[3,2-d]pyrimidine-7-carboxamide]	> 10	1 to 10
COc1ccc(C2=NN(C3CCN(C(=O)[C@H](Cc4ccccn4)NC(=O)c4c(C)[nH]c5c(-c6c(OCC7CC7)ccc7c6OCO7)ncnc45)CC3)C(=O)[C@@H]3CCCC[C@H]23)cc1OC [Example 38, 4-[5-(cyclopropylmethoxy)-1,3-benzodioxol-4-yl]-N-[(2S)-1-{4-[(4aS,8aR)-4-(3,4-dimethoxyphenyl)-1-oxo-4a,5,6,7,8,8a-hexahydrophthalazin-2(1H)-yl]piperidin-1-yl}-1-oxo-3-(pyridin-2-yl)propan-2-yl]-6-methyl-5H-pyrrolo[3,2-d]pyrimidine-7-carboxamide]	< 1	1 to 10

The next lines start with the values.

IC50 (human PDE5) [nM]	IC50 (PDE4B1) [nM]	Compound
1 to 10	< 1	COc1ccc(C2=NN(C3CCN(C(=O)[C@H](C)NC(=O)c4c[nH]c5c(-c6c(OCC7CC7)ccc7c6OCO7)ncnc45)CC3)C(=O)[C@@H]3CCCC[C@H]23)cc1OC [Example 61, 4-[5-(cyclopropylmethoxy)-1,3-benzodioxol-4-yl]-N-[(2S)-1-{4-[(4aS,8aR)-4-(3,4-dimethoxyphenyl)-1-oxo-4a,5,6,7,8,8a-hexahydrophthalazin-2(1H)-yl]piperidin-1-yl}-1-oxopropan-2-yl]-5H-pyrrolo[3,2-d]pyrimidine-7-carboxamide]
< 1	< 1	COc1ccc(C2=NN(C3CCN(C(=O)[C@@H](CCc4ccccc4)NC(=O)c4c[nH]c5c(-c6c(OCC7CC7)ccc7c6OCO7)ncnc45)CC3)C(=O)[C@@H]3CCCC[C@H]23)cc1OC [Example 65, 4-[5-(cyclopropylmethoxy)-1,3-benzodioxol-4-yl]-N-[(2R)-1-{4-[(4aS,8aR)-4-(3,4-dimethoxyphenyl)-1-oxo-4a,5,6,7,8,8a-hexahydrophthalazin-2(1H)-yl]piperidin-1-yl}-1-oxo-4-phenylbutan-2-yl]-5H-pyrrolo[3,2-d]pyrimidine-7-carboxamide]
1 to 10	1 to 10	COc1ccc(C2=NN(C3CCN(C(=O)[C@H](CN(C)C)NC(=O)c4c[nH]c5c(-c6c(OCC7CC7)ccc7c6OCO7)ncnc45)CC3)C(=O)[C@@H]3CCCC[C@H]23)cc1OC [Example 97, 4-[5-(cyclopropylmethoxy)-1,3-benzodioxol-4-yl]-N-[(2S)-1-{4-[(4aS,8aR)-4-(3,4-dimethoxyphenyl)-1-oxo-4a,5,6,7,8,8a-hexahydrophthalazin-2(1H)-yl]piperidin-1-yl}-3-(dimethylamino)-1-oxopropan-2-yl]-5H-pyrrolo[3,2-d]pyrimidine-7-carboxamide]
1 to 10	1 to 10	COc1ccc(C2=NN(C3CCN(C(=O)[C@H](CCC(=O)N4CCCCC4)NC(=O)c4c[nH]c5c(-c6c(OCC7CC7)ccc7c6OCO7)ncnc45)CC3)C(=O)[C@@H]3CCCC[C@H]23)cc1OC [Example 79, 4-[5-(cyclopropylmethoxy)-1,3-benzodioxol-4-yl]-N-[(2S)-1-{4-[(4aS,8aR)-4-(3,4-dimethoxyphenyl)-1-oxo-4a,5,6,7,8,8a-hexahydrophthalazin-2(1H)-yl]piperidin-1-yl}-1,5-dioxo-5-(piperidin-1-yl)pentan-2-yl]-5H-pyrrolo[3,2-d]pyrimidine-7-carboxamide]
1 to 10	1 to 10	COc1ccc(C2=NN(C3CCN(C(=O)[C@H](Cc4cccnc4)NC(=O)c4c[nH]c5c(-c6c(OCC7CC7)ccc7c6OCO7)ncnc45)CC3)C(=O)C3(CCCC3)C2)cc1OC [Example 125, 4-[5-(cyclopropylmethoxy)-1,3-benzodioxol-4-yl]-N-[(2S)-1-{4-[9-(3,4-dimethoxyphenyl)-6-oxo-7,8-diazaspiro[4.5]dec-8-en-7-yl]piperidin-1-yl}-1-oxo-3-(pyridin-3-yl)propan-2-yl]-5H-pyrrolo[3,2-d]pyrimidine-7-carboxamide]
< 1	< 1	COc1ccc(C2=NN(C3CCN(C(=O)[C@@H](CC(C)C)NC(=O)c4c[nH]c5c(-c6c(OCC7CC7)ccc7c6OCO7)ncnc45)CC3)C(=O)[C@@H]3CCCC[C@H]23)cc1OC [Example 95, 4-[5-(cyclopropylmethoxy)-1,3-benzodioxol-4-yl]-N-[(2R)-1-{4-[(4aS,8aR)-4-(3,4-dimethoxyphenyl)-1-oxo-4a,5,6,7,8,8a-hexahydrophthalazin-2(1H)-yl]piperidin-1-yl}-4-methyl-1-oxopentan-2-yl]-5H-pyrrolo[3,2-d]pyrimidine-7-carboxamide]
1 to 10	1 to 10	COc1ccc(C2=NN(C3CCN(C(=O)[C@@H](Cc4ccc(C(F)(F)F)cc4)NC(=O)c4c[nH]c5c(-c6c(OCC7CC7)ccc7c6OCO7)ncnc45)CC3)C(=O)[C@@H]3CCCC[C@H]23)cc1OC [Example 49, 4-[5-(cyclopropylmethoxy)-1,3-benzodioxol-4-yl]-N-{(2R)-1-{4-[(4aS,8aR)-4-(3,4-dimethoxyphenyl)-1-oxo-4a,5,6,7,8,8a-hexahydrophthalazin-2(1H)-yl]piperidin-1-yl}-1-oxo-3-[4-(trifluoromethyl)phenyl]propan-2-yl}-5H-pyrrolo[3,2-d]pyrimidine-7-carboxamide]
1 to 10	1 to 10	COc1ccc(C2=NN(C3CCN(C(=O)[C@H](CCC(=O)OCc4ccccc4)NC(=O)c4c[nH]c5c(-c6c(OCC7CC7)ccc7c6OCO7)ncnc45)CC3)C(=O)[C@@H]3CCCC[C@H]23)cc1OC [Example 104, Benzyl (4S)-4-[({4-[5-(cyclopropylmethoxy)-1,3-benzodioxol-4-yl]-5H-pyrrolo[3,2-d]pyrimidin-7-yl}carbonyl)amino]-5-{4-[(4aS,8aR)-4-(3,4-dimethoxyphenyl)-1-oxo-4a,5,6,7,8,8a-hexahydrophthalazin-2(1H)-yl]piperidin-1-yl}-5-oxopentanoate]
1 to 10	1 to 10	COc1ccc(C2=NN(C3CCN(C(=O)[C@H](NC(=O)c4c(C)[nH]c5c(-c6c(OCC7CC7)ccc7c6OCO7)ncnc45)C(C)C)CC3)C(=O)[C@@H]3CCCC[C@H]23)cc1OC [Example 120, 4-[5-(cyclopropylmethoxy)-1,3-benzodioxol-4-yl]-N-[(2R)-1-{4-[(4aS,8aR)-4-(3,4-dimethoxyphenyl)-1-oxo-4a,5,6,7,8,8a-hexahydrophthalazin-2(1H)-yl]piperidin-1-yl}-3-methyl-1-oxobutan-2-yl]-6-methyl-5H-pyrrolo[3,2-d]pyrimidine-7-carboxamide]
